Measured values taken from ChEMBL document CHEMBL1148851, “Chemoenzymatic synthesis and in vitro studies on the hydrolysis of antimicrobial monoglycosyl diglycerides by pancreatic lipase” (2007).
Values after ≈ are worked out from the molar mass of the structure shown.

How the values were obtained:
Assay type in all cases: functional
Candida albicans = experiment: Antifungal activity against Candida albicans by dilution method
Enterococcus faecalis = experiment: Antibacterial activity against Enterococcus faecalis ATCC 29212
[1] = test system: Mycobacterium tuberculosis; experiment: Antibacterial activity against Mycobacterium tuberculosis H190 by dilution method
Staphylococcus aureus [2] = experiment: Antibacterial activity against Staphylococcus aureus SA52 isolate
Staphylococcus aureus [3] = experiment: Antibacterial activity against Staphylococcus aureus SA87 isolate
[4] = test system: Mycobacterium tuberculosis; experiment: Antibacterial activity against Mycobacterium tuberculosis H37Rv by dilution method
Kluyveromyces marxianus = experiment: Antifungal activity against Candida pseudotropicalis by dilution method
Pseudomonas aeruginosa = experiment: Antibacterial activity against Pseudomonas aeruginosa ATCC 27753
Staphylococcus aureus [5] = experiment: Antibacterial activity against Staphylococcus aureus ATCC 105487
[6] = test system: Mycobacterium tuberculosis; experiment: Antibacterial activity against Mycobacterium tuberculosis H160 by dilution method
Staphylococcus aureus [7] = experiment: Antibacterial activity against Staphylococcus aureus ATCC 25923
Staphylococcus aureus [8] = experiment: Antibacterial activity against Staphylococcus aureus SA85 isolate
Bacillus subtilis = experiment: Antibacterial activity against Bacillus subtilis ATCC 6633
Escherichia coli = experiment: Antibacterial activity against Escherichia coli ATCC 25922
[9] = Staphylococcus aureus, read-out: MIC
[10] = Mycobacterium tuberculosis, H37Rv, read-out: MIC
[11] = Mycobacterium tuberculosis, H160, read-out: MIC
[12] = Bacillus subtilis, ATCC 6633, read-out: MIC

Structure (SMILES) | MIC (Candida albicans) [µg/mL] | MIC (Enterococcus faecalis) [µg/mL] | MIC [1] [µg/mL] | MIC (Staphylococcus aureus [2]) [µg/mL] | MIC (Staphylococcus aureus [3]; [9]) [µg/mL] | MIC [4, 10] [µg/mL] | MIC (Kluyveromyces marxianus) [µg/mL] | MIC (Pseudomonas aeruginosa) [µg/mL] | MIC (Staphylococcus aureus [5]) [µg/mL] | MIC [6, 11] [µg/mL] | MIC (Staphylococcus aureus [7]) [µg/mL] | MIC (Staphylococcus aureus [8]) [µg/mL] | MIC (Bacillus subtilis; [12]) [µg/mL] | MIC (Escherichia coli) [µg/mL] | MIC (Staphylococcus aureus [3]) [µg/mL] | MIC (Bacillus subtilis) [µg/mL] | MIC [4] [µg/mL] | MIC [6] [µg/mL]
CCCCCCCCCC(=O)OCC(CO[C@@H]1O[C@H](CO)[C@H](O)[C@H](O)[C@H]1O)OC(=O)CCCCCCCCC (stereo not given in full) | > 128 | > 128 | 64 (≈ 114 µM) | > 128 | 128 (≈ 227 µM) | 128 (≈ 227 µM) | > 128 | > 128 | > 128 | 64 (≈ 114 µM) | 32 (≈ 56.9 µM) | 32 (≈ 56.9 µM) | > 128 | > 128 | – | – | – | –
CCCCC/C=C\C/C=C\CCCCCCCC(=O)OC(COC(=O)CCCCCCCCC)CO[C@@H]1O[C@H](CO)[C@H](O)[C@H](O)[C@H]1O (stereo not given in full) | > 128 | 128 (≈ 191 µM) | > 128 | > 128 | 64 (≈ 95.4 µM) | > 128 | > 128 | > 128 | 64 (≈ 95.4 µM) | > 128 | > 128 | 64 (≈ 95.4 µM) | 128 (≈ 191 µM) | > 128 | – | – | – | –
CC/C=C\C/C=C\C/C=C\CCCCCCCC(=O)OC(COC(=O)CCCCCCCCC)CO[C@@H]1O[C@H](CO)[C@@H](O)[C@H](O)[C@H]1O (stereo not given in full) | > 128 | > 128 | > 128 | > 128 | 32 (≈ 47.8 µM) | > 128 | > 128 | > 128 | > 128 | > 128 | > 128 | 64 (≈ 95.7 µM) | > 128 | > 128 | – | – | – | –
CCCCCCCC/C=C\CCCCCCCC(=O)OC(COC(=O)CCCCCCCCC)CO[C@@H]1O[C@H](CO)[C@H](O)[C@H](O)[C@H]1O (stereo not given in full) | > 128 | > 128 | > 128 | > 128 | > 128 | > 128 | > 128 | > 128 | > 128 | > 128 | 128 (≈ 190 µM) | 128 (≈ 190 µM) | 32 (≈ 47.6 µM) | > 128 | – | – | – | –
CC/C=C\C/C=C\C/C=C\CCCCCCCC(=O)OC(COC(=O)CCCCCCCCC)CO[C@@H]1O[C@H](CO)[C@H](O)[C@H](O)[C@H]1O (stereo not given in full) | > 128 | > 128 | > 128 | > 128 | 32 (≈ 47.8 µM) | > 128 | > 128 | > 128 | > 128 | > 128 | > 128 | 64 (≈ 95.7 µM) | > 128 | > 128 | – | – | – | –
CCCCC/C=C\C/C=C\CCCCCCCC(=O)OC(COC(=O)CCCCCCCCC)CO[C@@H]1O[C@H](CO)[C@@H](O)[C@H](O)[C@H]1O (stereo not given in full) | > 128 | 64 (≈ 95.4 µM) | > 128 | > 128 | 32 (≈ 47.7 µM) | > 128 | > 128 | > 128 | 32 (≈ 47.7 µM) | > 128 | > 128 | 32 (≈ 47.7 µM) | 128 (≈ 191 µM) | > 128 | – | – | – | –
CCCCCCCCCCCCCC(=O)OCC(CO[C@@H]1O[C@H](CO)[C@H](O)[C@H](O)[C@H]1O)OC(=O)CCCCCCCCCCCCC (stereo not given in full) | > 128 | > 128 | > 128 | > 128 | > 128 | > 128 | > 128 | > 128 | > 128 | > 128 | > 128 | > 128 | > 128 | > 128 | – | – | – | –
CCCCC/C=C\C/C=C\CCCCCCCC(=O)OC(COC(=O)CCCCCCC)CO[C@@H]1O[C@H](CO)[C@@H](O)[C@H](O)[C@H]1O (stereo not given in full) | > 128 | > 128 | 64 (≈ 99.6 µM) | > 128 | 64 (≈ 99.6 µM) | 64 (≈ 99.6 µM) | > 128 | > 128 | > 128 | 128 (≈ 199 µM) | > 128 | > 128 | 128 (≈ 199 µM) | > 128 | – | – | – | –
CCCCCCCC/C=C\CCCCCCCC(=O)OC(COC(=O)CCCCCCCCC)CO[C@@H]1O[C@H](CO)[C@@H](O)[C@H](O)[C@H]1O (stereo not given in full) | > 128 | > 128 | > 128 | > 128 | > 128 | > 128 | > 128 | > 128 | > 128 | > 128 | 8 (≈ 11.9 µM) | 128 (≈ 190 µM) | 32 (≈ 47.6 µM) | > 128 | – | – | – | –
CCCCCCCCCCCCCCCCCC(=O)OCC(CO[C@@H]1O[C@H](CO)[C@H](O)[C@H](O)[C@H]1O)OC(=O)CCCCCCCCCCCCCCCCC (stereo not given in full) | > 128 | > 128 | > 128 | > 128 | > 128 | > 128 | > 128 | > 128 | > 128 | > 128 | > 128 | > 128 | > 128 | > 128 | – | – | – | –
CCCCC/C=C\C/C=C\CCCCCCCC(=O)OC(COC(=O)CCCCCCC)CO[C@@H]1O[C@H](CO)[C@H](O)[C@H](O)[C@H]1O (stereo not given in full) | > 128 | > 128 | 128 (≈ 199 µM) | > 128 | 128 (≈ 199 µM) | 64 (≈ 99.6 µM) | > 128 | > 128 | > 128 | 64 (≈ 99.6 µM) | > 128 | > 128 | 128 (≈ 199 µM) | > 128 | – | – | – | –
CCCCCCCCCCCC(=O)OCC(CO[C@@H]1O[C@H](CO)[C@H](O)[C@H](O)[C@H]1O)OC(=O)CCCCCCCCCCC (stereo not given in full) | > 128 | > 128 | > 128 | > 128 | > 128 | > 128 | > 128 | > 128 | > 128 | > 128 | > 128 | > 128 | > 128 | > 128 | – | – | – | –
CCCCCCCC/C=C\CCCCCCCC(=O)OCC(CO[C@@H]1O[C@H](CO)[C@H](O)[C@H](O)[C@H]1O)OC(=O)CCCCCCC/C=C\CCCCCCCC (stereo not given in full) | > 128 | > 128 | > 128 | > 128 | > 128 | > 128 | > 128 | > 128 | > 128 | > 128 | > 128 | > 128 | > 128 | > 128 | – | – | – | –
CCCCCCCC/C=C\CCCCCCCC(=O)OC(COC(=O)CCCCCCC)CO[C@@H]1O[C@H](CO)[C@@H](O)[C@H](O)[C@H]1O (stereo not given in full) | > 128 | > 128 | 64 (≈ 99.2 µM) | > 128 | 64 (≈ 99.2 µM) | 64 (≈ 99.2 µM) | > 128 | > 128 | > 128 | 64 (≈ 99.2 µM) | > 128 | > 128 | 128 (≈ 198 µM) | > 128 | – | – | – | –
CCCCCCCC/C=C\CCCCCCCC(=O)OC(COC(=O)CCCCCCC)CO[C@@H]1O[C@H](CO)[C@H](O)[C@H](O)[C@H]1O (stereo not given in full) | > 128 | > 128 | 64 (≈ 99.2 µM) | > 128 | 64 (≈ 99.2 µM) | 128 (≈ 198 µM) | > 128 | > 128 | > 128 | 64 (≈ 99.2 µM) | > 128 | > 128 | 128 (≈ 198 µM) | > 128 | – | – | – | –
CC/C=C\C/C=C\C/C=C\CCCCCCCC(=O)OCC(CO[C@@H]1O[C@H](CO)[C@@H](O)[C@H](O)[C@H]1O)OC(=O)CCCCCCC/C=C\C/C=C\C/C=C\CC (stereo not given in full) | > 128 | > 128 | > 128 | > 128 | > 128 | > 128 | > 128 | > 128 | > 128 | > 128 | > 128 | > 128 | > 128 | > 128 | – | – | – | –
CCCCCCCC/C=C\CCCCCCCC(=O)OCC(CO[C@@H]1O[C@H](CO)[C@@H](O)[C@H](O)[C@H]1O)OC(=O)CCCCCCC/C=C\CCCCCCCC (stereo not given in full) | > 128 | > 128 | > 128 | > 128 | > 128 | > 128 | > 128 | > 128 | > 128 | > 128 | > 128 | > 128 | > 128 | > 128 | – | – | – | –
CC/C=C\C/C=C\C/C=C\CCCCCCCC(=O)OC(COC(=O)CCCCCCC)CO[C@@H]1O[C@H](CO)[C@H](O)[C@H](O)[C@H]1O (stereo not given in full) | > 128 | > 128 | 128 (≈ 200 µM) | > 128 | 64 (≈ 99.9 µM) | 128 (≈ 200 µM) | > 128 | > 128 | > 128 | 128 (≈ 200 µM) | > 128 | > 128 | 128 (≈ 200 µM) | > 128 | – | – | – | –
CCCCC/C=C\C/C=C\CCCCCCCC(=O)OCC(CO[C@@H]1O[C@H](CO)[C@@H](O)[C@H](O)[C@H]1O)OC(=O)CCCCCCC/C=C\C/C=C\CCCCC (stereo in doubt; 9g) | – | – | 128 (≈ 164 µM) | – | – | 64 (≈ 82.1 µM) | – | – | – | 64 (≈ 82.1 µM) | – | – | – | – | 64 (≈ 82.1 µM) | 128 (≈ 164 µM) | – | –
CCCCC/C=C\C/C=C\CCCCCCCC(=O)OCC(CO[C@@H]1O[C@H](CO)[C@@H](O)[C@H](O)[C@H]1O)OC(=O)CCCCCCC/C=C\C/C=C\CCCCC (stereo in doubt; 9q) | > 128 | > 128 | – | > 128 | 128 (≈ 164 µM) | – | > 128 | > 128 | > 128 | – | > 128 | > 128 | 128 (≈ 164 µM) | > 128 | – | – | 128 (≈ 164 µM) | 128 (≈ 164 µM)
